Test results published in patent US20230331655A1, “HYDROXYN[…] AND METHODS OF USE THEREOF” (UNIVERSITY OF MARYLAND, BALTIMORE, priority 2020, published 2023).
Entries after “also recorded” stand apart in the source; their conditions may differ.

What was measured:
[1] = oral bioavailability in mice; details: mouse, in vivo
Male C57BL/6J mice [2] = assay: sub-effective dose morphine conditioned-place preference after chronic social defeat stress; assay type: in vivo, mouse; details: single 10 mg/kg i.p. before conditioning, morphine 0.25 mg/kg
Text: (§1) Animals: Male C57BL/6J mice (8 weeks old, Jackson laboratories) were kept in a temperature and humidity-controlled environment and maintained in a 12:12 hr light/dark cycle (lights on at 7:00 AM). Mice were singly-housed for all the studies due to increased aggression following opioid administration and were randomly assigned to treatment groups.
Drugs: (2R,6R)-HNK hydrochloride was synthesized and characterized. Absolute and relative stereochemistry for (2R,6R)-HNK was confirmed by small molecule x-ray crystallography. For the intraperitoneal injections, drugs were dissolved in 0.9% saline and given in a volume of 5 ml/kg.
Social defeats: Socially defeated mice underwent a 10-day chronic social defeat stress paradigm. […]
Social interaction test: Following the social defeats, on day 11, test mice were screened for susceptibility in a social interaction/avoidance choice test. […] The time spent interacting (nose within close proximity of the cage) with the “stranger” mouse versus the empty cage was analyzed using TopScan video tracking software (CleverSys, Reston, Virginia). […]
Sucrose preference: Following the social interaction test, mice were assessed for sucrose preference in their home cages. […] Sucrose preference was measured (day 12) and were assigned to two groups: resilient (sucrose preference >70%) and susceptible (sucrose preference <55%). […]

Male C57BL/6J mice [3] = assay: sub-threshold social defeat stress in mice previously exposed to morphine; assay type: in vivo, mouse
Text: as §1
Drugs: (2R,6R)-HNK hydrochloride was synthesized and characterized. Absolute and relative stereochemistry for (2R,6R)-HNK was confirmed by small molecule x-ray crystallography. For the intraperitoneal injections, drugs were dissolved in 0.9% saline and given in a volume of 5 ml/kg. […]
Social interaction test: Following the sub-threshold social defeat stress, on day 16, test mice were screened for susceptibility in a social interaction/avoidance choice test. […] The time spent interacting (nose within close proximity of the cage) with the “stranger” mouse versus the empty cage was analyzed using TopScan video tracking software (CleverSys, Reston, Virginia). % Social Interaction was calculated as the time spent interacting with stranger divided by the total time interacting with the end-chamber cages×100.
Sucrose preference: Following the social interaction test, mice were assessed for sucrose preference in their home cages. […]

## N[C@@]1(c2ccccc2Cl)CCC[C@@H](O)C1=O [(2R,6R)-HNK, (2R,6R)-hydroxynorketamine]
[1]
  bioavailability: ~50%
Male C57BL/6J mice [2]; stress susceptible mice
  morphine-induced place preference (conditioning to sub-effective dose of morphine): prevents conditioning; also recorded: prevented morphine-induced place preference
Male C57BL/6J mice [2]; stress-resilient mice
  morphine-induced place preference (conditioning to sub-effective dose of morphine): no significant effect
Male C57BL/6J mice [3]; 10 mg/kg i.p. 2 hours after sub-threshold social defeat, mice previously exposed to morphine 10 mg/kg
  stress susceptibility phenotypes / emotional deficits (social interaction, sucrose preference, female urine sniffing, untorn nestlet weight): reverses emotional deficits; also recorded: reversed stress susceptibility phenotypes
Male C57BL/6J mice [3]; 10 mg/kg i.p. after the first defeats, 1 min re-exposure
  reinstatement of maladaptive behaviors after brief re-exposure to stress: prevents reinstatement
